What was measured:
[1] = molecular target: T1, Serine/threonine-protein kinase D3 (Homo sapiens) (UniProt O94806); experiment: Inhibition of human full length PKD3 expressed in baculovirus assessed as substrate phosphorylation using fluorescence-labelled peptides as substrate at 8 uM after 90 mins by microfluidic peptide phosphorylation assay
T1 sequence (whole entry): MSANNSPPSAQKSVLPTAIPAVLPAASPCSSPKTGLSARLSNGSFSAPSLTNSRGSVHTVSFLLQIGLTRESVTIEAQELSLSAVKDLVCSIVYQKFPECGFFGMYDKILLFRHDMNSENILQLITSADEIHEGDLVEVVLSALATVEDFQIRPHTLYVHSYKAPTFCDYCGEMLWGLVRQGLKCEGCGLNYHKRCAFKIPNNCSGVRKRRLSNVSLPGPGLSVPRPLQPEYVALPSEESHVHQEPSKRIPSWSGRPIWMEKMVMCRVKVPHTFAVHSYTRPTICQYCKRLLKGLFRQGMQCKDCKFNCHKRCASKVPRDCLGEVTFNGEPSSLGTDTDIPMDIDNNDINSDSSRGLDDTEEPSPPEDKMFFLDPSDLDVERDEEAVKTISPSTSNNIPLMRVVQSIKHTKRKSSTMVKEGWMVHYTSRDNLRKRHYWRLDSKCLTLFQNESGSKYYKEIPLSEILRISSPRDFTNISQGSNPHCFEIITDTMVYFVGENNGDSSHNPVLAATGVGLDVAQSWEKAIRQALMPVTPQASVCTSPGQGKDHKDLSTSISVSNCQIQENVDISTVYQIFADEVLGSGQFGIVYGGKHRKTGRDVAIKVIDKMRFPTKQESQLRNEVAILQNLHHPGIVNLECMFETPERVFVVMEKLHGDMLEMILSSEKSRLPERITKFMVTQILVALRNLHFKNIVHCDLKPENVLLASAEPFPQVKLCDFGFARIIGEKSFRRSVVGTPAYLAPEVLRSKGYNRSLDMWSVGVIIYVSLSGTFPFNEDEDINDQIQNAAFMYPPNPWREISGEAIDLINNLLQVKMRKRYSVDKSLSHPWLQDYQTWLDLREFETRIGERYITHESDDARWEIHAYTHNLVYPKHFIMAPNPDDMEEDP

[2] = molecular target: Ribosomal protein S6 kinase alpha-3 (Homo sapiens) (UniProt P51812); experiment: Inhibition of human full length RSK2 expressed in baculovirus assessed as substrate phosphorylation using fluorescence-labelled peptides as substrate at 8 uM after 90 mins by microfluidic peptide phosphorylation assay
[3] = molecular target: Aurora kinase B (Homo sapiens) (UniProt Q96GD4); experiment: Inhibition of human full length AurB expressed in baculovirus assessed as substrate phosphorylation using fluorescence-labelled peptides as substrate at 9 uM after 90 mins by microfluidic peptide phosphorylation assay
[4] = molecular target: Calcium/calmodulin-dependent protein kinase type II subunit beta (Homo sapiens) (UniProt Q13554); experiment: Inhibition of human CAMK2 beta catalytic domain expressed in baculovirus assessed as substrate phosphorylation using fluorescence-labelled peptides as substrate at 1000 uM after 90 mins by microfluidic peptide phosphorylation assay
[5] = molecular target: Tyrosine-protein kinase Fer (Homo sapiens) (UniProt P16591); experiment: Inhibition of human FER catalytic domain expressed in baculovirus assessed as substrate phosphorylation using fluorescence-labelled peptides as substrate at 70 uM after 90 mins by microfluidic peptide phosphorylation assay
[6] = molecular target: Protein kinase C beta type (Homo sapiens) (UniProt P05771); experiment: Inhibition of human full length PKC beta2 expressed in baculovirus assessed as substrate phosphorylation using fluorescence-labelled peptides as substrate at 70 uM after 90 mins by microfluidic peptide phosphorylation assay
[7] = molecular target: T2, Serine/threonine-protein kinase BRSK2 (Homo sapiens) (UniProt Q8IWQ3); experiment: Inhibition of human truncated BRSK2 expressed in baculovirus assessed as substrate phosphorylation using fluorescence-labelled peptides as substrate at 420 uM after 90 mins by microfluidic peptide phosphorylation assay
T2 sequence (whole entry): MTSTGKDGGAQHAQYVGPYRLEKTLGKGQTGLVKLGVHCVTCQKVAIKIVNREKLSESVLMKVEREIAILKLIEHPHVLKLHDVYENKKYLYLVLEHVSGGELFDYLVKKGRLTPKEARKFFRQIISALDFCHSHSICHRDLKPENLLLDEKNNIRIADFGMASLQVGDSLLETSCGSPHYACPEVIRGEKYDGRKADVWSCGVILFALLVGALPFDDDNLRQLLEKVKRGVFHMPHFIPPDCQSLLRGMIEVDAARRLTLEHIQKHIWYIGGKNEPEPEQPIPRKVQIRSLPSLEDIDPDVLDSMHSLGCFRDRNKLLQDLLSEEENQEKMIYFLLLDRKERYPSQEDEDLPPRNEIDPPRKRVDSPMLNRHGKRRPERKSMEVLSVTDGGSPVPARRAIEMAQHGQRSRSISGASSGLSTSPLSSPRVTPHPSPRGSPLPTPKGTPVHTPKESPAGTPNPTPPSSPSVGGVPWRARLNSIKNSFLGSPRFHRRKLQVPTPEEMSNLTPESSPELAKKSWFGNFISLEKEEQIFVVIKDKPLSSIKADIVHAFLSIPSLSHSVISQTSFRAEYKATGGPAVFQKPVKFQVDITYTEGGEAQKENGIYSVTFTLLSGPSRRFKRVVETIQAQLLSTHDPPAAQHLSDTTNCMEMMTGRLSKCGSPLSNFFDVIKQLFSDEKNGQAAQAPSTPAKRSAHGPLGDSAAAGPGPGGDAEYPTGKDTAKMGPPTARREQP

Chain of Protein kinase C beta type (Homo sapiens) (P05771 2-671 limits assumed): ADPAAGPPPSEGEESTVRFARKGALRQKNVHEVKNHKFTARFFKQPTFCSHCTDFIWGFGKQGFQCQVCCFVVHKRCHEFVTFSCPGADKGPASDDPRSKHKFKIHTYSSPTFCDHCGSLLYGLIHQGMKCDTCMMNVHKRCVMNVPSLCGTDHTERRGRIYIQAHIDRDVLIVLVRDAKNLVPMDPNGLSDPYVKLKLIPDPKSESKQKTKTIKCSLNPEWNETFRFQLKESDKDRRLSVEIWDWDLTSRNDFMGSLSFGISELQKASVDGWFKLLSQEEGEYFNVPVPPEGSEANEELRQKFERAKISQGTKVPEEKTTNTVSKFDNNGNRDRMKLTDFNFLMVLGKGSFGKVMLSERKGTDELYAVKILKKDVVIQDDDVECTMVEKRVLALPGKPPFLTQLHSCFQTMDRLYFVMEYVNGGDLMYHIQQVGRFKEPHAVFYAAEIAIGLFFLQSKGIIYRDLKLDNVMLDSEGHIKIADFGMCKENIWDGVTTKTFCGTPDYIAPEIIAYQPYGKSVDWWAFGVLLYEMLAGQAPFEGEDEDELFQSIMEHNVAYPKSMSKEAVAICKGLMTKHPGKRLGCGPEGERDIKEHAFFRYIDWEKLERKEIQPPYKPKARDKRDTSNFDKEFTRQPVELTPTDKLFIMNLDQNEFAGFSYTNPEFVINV
Chain of Calcium/calmodulin-dependent protein kinase type II subunit beta (Homo sapiens) (Q13554 whole entry, the tested form may be a part): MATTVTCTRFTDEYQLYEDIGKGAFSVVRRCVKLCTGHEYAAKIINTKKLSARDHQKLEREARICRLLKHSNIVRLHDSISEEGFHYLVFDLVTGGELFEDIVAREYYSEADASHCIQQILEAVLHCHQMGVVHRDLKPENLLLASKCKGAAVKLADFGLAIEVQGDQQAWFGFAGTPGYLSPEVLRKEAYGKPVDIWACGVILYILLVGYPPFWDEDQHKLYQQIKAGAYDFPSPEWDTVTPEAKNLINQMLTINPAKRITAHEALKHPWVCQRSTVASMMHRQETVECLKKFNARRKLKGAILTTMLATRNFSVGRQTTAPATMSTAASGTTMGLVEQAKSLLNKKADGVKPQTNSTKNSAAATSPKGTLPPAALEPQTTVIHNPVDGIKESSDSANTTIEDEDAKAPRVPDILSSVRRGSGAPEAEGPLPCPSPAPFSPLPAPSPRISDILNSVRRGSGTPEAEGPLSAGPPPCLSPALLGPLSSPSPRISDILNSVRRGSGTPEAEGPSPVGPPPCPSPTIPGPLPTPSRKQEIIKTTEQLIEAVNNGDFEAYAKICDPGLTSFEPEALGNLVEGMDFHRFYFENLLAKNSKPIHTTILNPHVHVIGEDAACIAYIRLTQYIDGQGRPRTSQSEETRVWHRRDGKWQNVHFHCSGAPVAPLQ
Chain of Tyrosine-protein kinase Fer (Homo sapiens) (P16591 whole entry, looked up, the tested form may be a part): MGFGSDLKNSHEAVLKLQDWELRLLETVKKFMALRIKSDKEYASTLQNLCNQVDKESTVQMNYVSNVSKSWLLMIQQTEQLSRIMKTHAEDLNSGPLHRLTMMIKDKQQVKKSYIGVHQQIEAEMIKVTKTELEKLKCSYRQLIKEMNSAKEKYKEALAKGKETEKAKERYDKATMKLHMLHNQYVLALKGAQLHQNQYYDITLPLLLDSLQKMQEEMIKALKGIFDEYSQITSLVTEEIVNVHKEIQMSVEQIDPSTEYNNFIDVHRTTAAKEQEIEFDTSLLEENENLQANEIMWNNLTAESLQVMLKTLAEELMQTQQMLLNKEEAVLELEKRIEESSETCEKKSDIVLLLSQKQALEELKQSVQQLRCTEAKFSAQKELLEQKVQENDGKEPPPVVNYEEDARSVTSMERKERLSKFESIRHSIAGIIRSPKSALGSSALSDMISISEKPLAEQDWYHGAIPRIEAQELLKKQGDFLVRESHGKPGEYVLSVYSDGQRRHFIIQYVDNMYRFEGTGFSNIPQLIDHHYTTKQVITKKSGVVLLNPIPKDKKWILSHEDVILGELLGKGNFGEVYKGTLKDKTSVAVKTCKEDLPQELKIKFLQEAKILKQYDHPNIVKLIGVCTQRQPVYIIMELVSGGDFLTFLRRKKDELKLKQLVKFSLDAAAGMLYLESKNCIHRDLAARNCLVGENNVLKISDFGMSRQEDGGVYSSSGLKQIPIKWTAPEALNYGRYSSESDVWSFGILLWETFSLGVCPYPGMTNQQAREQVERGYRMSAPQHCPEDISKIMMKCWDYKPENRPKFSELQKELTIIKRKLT
Chain of Ribosomal protein S6 kinase alpha-3 (Homo sapiens) (P51812 whole entry): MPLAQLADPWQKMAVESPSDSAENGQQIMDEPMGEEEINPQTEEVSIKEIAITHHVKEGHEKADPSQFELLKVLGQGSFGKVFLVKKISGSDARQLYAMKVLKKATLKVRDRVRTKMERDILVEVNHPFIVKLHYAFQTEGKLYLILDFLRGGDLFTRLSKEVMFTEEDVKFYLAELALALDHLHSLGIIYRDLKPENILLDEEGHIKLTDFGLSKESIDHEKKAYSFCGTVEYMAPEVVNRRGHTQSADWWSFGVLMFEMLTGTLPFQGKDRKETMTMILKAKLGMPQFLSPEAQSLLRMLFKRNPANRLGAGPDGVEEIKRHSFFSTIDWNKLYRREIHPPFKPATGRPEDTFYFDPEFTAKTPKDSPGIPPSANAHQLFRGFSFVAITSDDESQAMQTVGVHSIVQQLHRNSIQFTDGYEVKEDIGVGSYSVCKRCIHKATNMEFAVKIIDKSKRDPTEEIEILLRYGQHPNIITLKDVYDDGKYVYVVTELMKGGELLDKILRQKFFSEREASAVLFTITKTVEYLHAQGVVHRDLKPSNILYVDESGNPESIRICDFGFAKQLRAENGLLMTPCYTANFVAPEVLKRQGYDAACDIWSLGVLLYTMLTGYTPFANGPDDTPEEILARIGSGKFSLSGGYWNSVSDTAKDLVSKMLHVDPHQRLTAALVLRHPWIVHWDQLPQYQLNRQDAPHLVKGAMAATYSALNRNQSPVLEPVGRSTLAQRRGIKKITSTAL
Chain of Aurora kinase B (Homo sapiens) (Q96GD4 whole entry, the tested form may be a part): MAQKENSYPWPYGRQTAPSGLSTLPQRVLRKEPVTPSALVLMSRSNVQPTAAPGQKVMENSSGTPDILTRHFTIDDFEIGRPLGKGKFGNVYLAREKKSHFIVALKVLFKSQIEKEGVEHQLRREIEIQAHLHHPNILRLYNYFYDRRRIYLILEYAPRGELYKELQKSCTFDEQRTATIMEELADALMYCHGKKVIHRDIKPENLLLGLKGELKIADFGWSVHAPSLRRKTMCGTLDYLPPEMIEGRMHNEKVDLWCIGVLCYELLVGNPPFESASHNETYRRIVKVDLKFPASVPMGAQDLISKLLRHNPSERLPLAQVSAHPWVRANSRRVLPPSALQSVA

For `NCC1CCN(c2ncnc3[nH]ccc23)CC1`, the inhibition [1] was 0% and the inhibition [2] was 32%.

Work on `NCC1CN(c2ncnc3[nH]c4cnccc4c23)CCO1` (configuration not stated) yielded an inhibition [3] of 31%.

`c1cnc2[nH]ccc2c1` showed an inhibition [4] of 30%.

`CNCc1ccc(-c2ncnc3[nH]cnc23)cc1` gave an inhibition [5] of 30% and an inhibition [6] of 0%.

With `c1nc(N2CCOCC2)c2nc[nH]c2n1` the inhibition [7] was 60.5%.

— ChEMBL document CHEMBL3132769, “Fragment growing to retain or alter the selectivity of anchored kinase hinge-binding fragments” (Medchemcomm, 2014)
